In US20210040089A1, “KRAS MUTANT PROTEIN INHIBITORS” (Jacobio Pharmaceuticals Co., Ltd., priority 2019, published 2021):
pIC50: −log10 of the molar value.

Experiments:
[1] = biological target: T1, KRAS G12C (Homo sapiens, UniProt P01116, G12C); assay: SOS1 catalyzed nucleotide exchange assay (TR-FRET); type: biochemical; conditions: GDP-loaded HIS-KRAS(G12C), 1 hour pre-incubation with compound
T1 construct: HIS-KRAS (G12C, aa 2-185, Sino biological); purchased Sino biological
How it was run: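 EDTA-stripped, GDP-loaded His-KRAS G12C (aa 2-185; 3 nM final) preincubated 1 h with compound, then SOS1 ExD (aa 564-1049; 2 μM) and BODIPY-FL GTP (80 nM) added for 4 h at 25 °C. TR-FRET via anti-His Tb cryptate (515/486 nm ratio); IC50 from 4-parameter logistic fit.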

[2] = system: Phospho-ERK1/2(THR202/TYR204) in NCI-H358 cells express KRAS G12C; assay: Phospho-ERK1/2(THR202/TYR204) HTRF assay; type: cell-based; conditions: Homo sapiens; NCI-H358, 2 hours incubation; read-out: p-ERK inhibition in NCI-H358 IC50
How it was run: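 Compounds applied to attached cells for 2 h at 37 °C in RPMI 1640 with 0.1% FBS. Lysate phospho-ERK1/2 detected by HTRF after 4 h antibody incubation at 25 °C; IC50 from 4-parameter logistic fit.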

[3] = system: NCI-H358 cells express KRAS G12C; assay: Cell growth inhibition assay (CCK-8); type: cell-based; conditions: Homo sapiens, 144 h; NCI-H358, 6 days incubation
How it was run: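 Antiproliferative read-out: KRAS G12C-mutant NCI-H358 lung cancer cells (3000/well) exposed to compounds in RPMI 1640 with 10% FBS for 6 days at 37°C. Viability by CCK-8 (OD450) after 1.5-2 h; IC50 from 4-parameter logistic fit.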

[4] = system: NCI-H1373 cells; assay: NCI-H1373 xenograft model; type: in vivo, female BALB/c mice; conditions: for TGI % / Tumor volume at the end (Day 22): Day 22
Description: 4. NCI-H1373 xenograft model
NCI-H1373 cells (5.0E+06 cells) were injected subcutaneously into the right flank of female BALB/c mice (6-8 weeks) in a mixture with Matrigel (BD Bioscience). Mice were monitored daily and caliper measurements began when tumors became visible. Tumor volume was calculated by measuring two perpendicular diameters using the following formula: (L*w^2)/2 in which L and w refer to the length and width tumor diameter, respectively. When the average tumor volume reached 150-200 mm^3, mice were grouped (n=6/group) and treated with compounds. Tumor volume and mice weight was measured twice a week during treatment (˜3 weeks). Tumor growth inhibition rates were calculated by TGI %=(1−(Vt−Vt0)/(Vc−Vc0))*100%, where Vc, Vt are the mean tumor volume of control and treated groups at the end of the study, and Vc0 and Vt0 are the mean tumor volume of control and treated groups at the start.

T1 sequence (P01116 2-185 isoform P01116-2 G12C): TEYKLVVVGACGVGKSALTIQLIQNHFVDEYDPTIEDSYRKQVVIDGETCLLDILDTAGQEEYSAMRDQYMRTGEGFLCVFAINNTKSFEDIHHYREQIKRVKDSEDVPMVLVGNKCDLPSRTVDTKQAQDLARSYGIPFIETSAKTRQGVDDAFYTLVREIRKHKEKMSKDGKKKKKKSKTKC

| SMILES | pIC50 [1] | pIC50 [2] | pIC50 [3] | further results |
| --- | --- | --- | --- | --- |
| C=CC(=O)N1CCN(c2nc(OCC3(CN4CCCC4)CC3)nc3c2CCN(c2cccc4cccc(C)c24)C3)CC1CC#N (centres unmarked) [Compound 56, 2-(1-acryloyl-4-(7-(8-methylnaphthalen-1-yl)-2-((1-(pyrrolidin-1-ylmethyl)cyclopropyl)methoxy)-5,6,7,8-tetrahydropyrido[3,4-d]pyrimidin-4-yl)piperazin-2-yl)acetonitrile] | 8.50 | 7.42 | 7.65 | TGI % ([4]; Table 2, 10 mg/kg, BID): 102.5%; Tumor volume at the end (Day 22) ([4]; Table 2, 10 mg/kg, BID): 148 mm^3; Tumor volume at the start ([4]; Table 2, 10 mg/kg, BID): 191 mm^3 |
| C=CC(=O)N1CCN(c2nc(OCC3(CN4CCCC4)CC3)nc3c2CCN(c2cccc4cccc(C)c24)C3)C[C@@H]1CC#N [Compound 67, (S)-2-(1-acryloyl-4-(7-(8-methylnaphthalen-1-yl)-2-((1-(pyrrolidin-1-ylmethyl)cyclopropyl)methoxy)-5,6,7,8-tetrahydropyrido[3,4-d]pyrimidin-4-yl)piperazin-2-yl)acetonitrile] | 8.74 | 7.65 | 7.69 | TGI % ([4]; Table 3, 10 mg/kg, QD): 106.1%; Tumor volume at the end (Day 22) ([4]; Table 3, 10 mg/kg, QD): 114 mm^3; Tumor volume at the start ([4]; Table 3, 10 mg/kg, QD): 188 mm^3 |
| COC/C=C/C(=O)N1CCN(c2nc(OCC3(CN(C)C)CC3)nc3c2CCN(c2cccc4cccc(C)c24)C3)CC1CC#N (centres unmarked) [Compound 70, (E)-2-(4-(2-((1-((dimethylamino)methyl)cyclopropyl)methoxy)-7-(8-methylnaphthalen-1-yl)-5,6,7,8-tetrahydropyrido[3,4-d]pyrimidin-4-yl)-1-(4-methoxybut-2-enoyl)piperazin-2-yl)acetonitrile] | 8.47 | 6.76 | 6.71 | – |
| C=C(F)C(=O)N1CCN(c2nc(OCC3(CN4CCN(C)CC4)CC3)nc3c2CCN(c2cccc4cccc(C)c24)C3)CC1CC#N (centres unmarked) [Compound 71, 2-(1-(2-fluoroacryloyl)-4-(7-(8-methylnaphthalen-1-yl)-2-((1-((4-methylpiperazin-1-yl)methyl)cyclopropyl)methoxy)-5,6,7,8-tetrahydropyrido[3,4-d]pyrimidin-4-yl)piperazin-2-yl)acetonitrile] | 8.12 | 6.30 | 6.43 | – |
| C=C(F)C(=O)N1CCN(c2nc(OCC3(CN4CCCC4)CC3)nc3c2CCN(c2cccc4cccc(C)c24)C3)CC1CC#N (centres unmarked) [Compound 72, 2-(1-(2-fluoroacryloyl)-4-(7-(8-methylnaphthalen-1-yl)-2-((1-(pyrrolidin-1-ylmethyl)cyclopropyl)methoxy)-5,6,7,8-tetrahydropyrido[3,4-d]pyrimidin-4-yl)piperazin-2-yl)acetonitrile] | 7.93 | 6.67 | 6.42 | – |
| C=C(F)C(=O)N1CCN(c2nc(OCC3(CN4CCC4)CC3)nc3c2CCN(c2cccc4cccc(C)c24)C3)CC1CC#N (centres unmarked) [Compound 73, 2-(4-(2-((1-(azetidin-1-ylmethyl)cyclopropyl)methoxy)-7-(8-methylnaphthalen-1-yl)-5,6,7,8-tetrahydropyrido[3,4-d]pyrimidin-4-yl)-1-(2-fluoroacryloyl)piperazin-2-yl)acetonitrile] | 7.77 | 6.02 | 6.05 | – |
| C/C=C/C(=O)N1CCN(c2nc(OCC3(CN4CCCC4)CC3)nc3c2CCN(c2cccc4cccc(C)c24)C3)CC1CC#N (centres unmarked) [Compound 74, (E)-2-(1-(but-2-enoyl)-4-(7-(8-methylnaphthalen-1-yl)-2-((1-(pyrrolidin-1-ylmethyl)cyclopropyl)methoxy)-5,6,7,8-tetrahydropyrido[3,4-d]pyrimidin-4-yl)piperazin-2-yl)acetonitrile] | 7.18 | < 6.30 | 5.82 | – |
| C=C(F)C(=O)N1CCN(c2nc(OCC3(CN4CC(N(C)C)C4)CC3)nc3c2CCN(c2cccc4cccc(C)c24)C3)CC1CC#N (centres unmarked) [Compound 75, 2-(4-(2-((1-((3-(dimethylamino)azetidin-1-yl)methyl)cyclopropyl)methoxy)-7-(8-methylnaphthalen-1-yl)-5,6,7,8-tetrahydropyrido[3,4-d]pyrimidin-4-yl)-1-(2-fluoroacryloyl)piperazin-2-yl)acetonitrile] | 8.14 | 6.39 | 6.63 | – |
| C=C(F)C(=O)N1CCN(c2nc(OCC3(CN(CC)CC)CC3)nc3c2CCN(c2cccc4cccc(C)c24)C3)CC1CC#N (centres unmarked) [Compound 76, 2-(4-(2-((1-((diethylamino)methyl)cyclopropyl)methoxy)-7-(8-methylnaphthalen-1-yl)-5,6,7,8-tetrahydropyrido[3,4-d]pyrimidin-4-yl)-1-(2-fluoroacryloyl)piperazin-2-yl)acetonitrile] | 7.93 | 6.45 | 6.38 | – |
| Cc1cccc2cccc(N3CCc4c(nc(OCC5(CN(C)C)CC5)nc4N4CCN(C(=O)/C=C/CF)C(CC#N)C4)C3)c12 (centres unmarked) [Compound 77, (E)-2-(4-(2-((1-((dimethylamino)methyl)cyclopropyl)methoxy)-7-(8-methylnaphthalen-1-yl)-5,6,7,8-tetrahydropyrido[3,4-d]pyrimidin-4-yl)-1-(4-fluorobut-2-enoyl)piperazin-2-yl)acetonitrile] | 8.91 | 7.23 | 7.54 | – |
| C=C(F)C(=O)N1CCN(c2nc(OCC3(CN(C)C)CC3)nc3c2CCN(c2cccc4cccc(C)c24)C3)CC1CC#N (centres unmarked) [Compound 78, 2-(4-(2-((1-((dimethylamino)methyl)cyclopropyl)methoxy)-7-(8-methylnaphthalen-1-yl)-5,6,7,8-tetrahydropyrido[3,4-d]pyrimidin-4-yl)-1-(2-fluoroacryloyl)piperazin-2-yl)acetonitrile] | 8.08 | 6.68 | 6.68 | – |
| C=C(F)C(=O)N1CCN(c2nc(OCC3(CN(C)C)CC3)nc3c2CCN(c2cccc4cccc(Cl)c24)C3)CC1CC#N (centres unmarked) [Compound 79, 2-(4-(7-(8-chloronaphthalen-1-yl)-2-((1-((dimethylamino)methyl)cyclopropyl)methoxy)-5,6,7,8-tetrahydropyrido[3,4-d]pyrimidin-4-yl)-1-(2-fluoroacryloyl)piperazin-2-yl)acetonitrile] | 8.22 | 6.36 | 6.62 | – |
| CN(C)CC1(COc2nc3c(c(N4CCN(C(=O)/C=C/CF)[C@@H](CC#N)C4)n2)CCN(c2cccc4cccc(Cl)c24)C3)CC1 [Compound 84, (S,E)-2-(4-(7-(8-chloronaphthalen-1-yl)-2-((1-((dimethylamino)methyl)cyclopropyl)methoxy)-5,6,7,8-tetrahydropyrido[3,4-d]pyrimidin-4-yl)-1-(4-fluorobut-2-enoyl)piperazin-2-yl)acetonitrile] | 8.80 | 7.10 | 7.61 | – |
| Cc1cccc2cccc(N3CCc4c(nc(OCC5(CN(C)C)CC5)nc4N4CCN(C(=O)/C=C/CN(C)C)C(CC#N)C4)C3)c12 (centres unmarked) [Compound 85, (E)-2-(1-(4-(dimethylamino)but-2-enoyl)-4-(2-((1-((dimethylamino)methyl)cyclopropyl)methoxy)-7-(8-methylnaphthalen-1-yl)-5,6,7,8-tetrahydropyrido[3,4-d]pyrimidin-4-yl)piperazin-2-yl)acetonitrile] | 8.54 | 6.82 | 6.88 | – |
| Cc1cccc2cccc(N3CCc4c(nc(OCC5(CN6CCCC6)CC5)nc4N4CCN(C(=O)/C=C/CN(C)C)C(CC#N)C4)C3)c12 (centres unmarked) [Compound 86, (E)-2-(1-(4-(dimethylamino)but-2-enoyl)-4-(7-(8-methylnaphthalen-1-yl)-2-((1-(pyrrolidin-1-ylmethyl)cyclopropyl)methoxy)-5,6,7,8-tetrahydropyrido[3,4-d]pyrimidin-4-yl)piperazin-2-yl)acetonitrile] | < 6.30 | 6.88 | 6.99 | – |
| C=C(F)C(=O)N1CCN(c2nc(OCC3CCCN3C)nc3c2CCN(c2cccc4cccc(Cl)c24)C3)C[C@@H]1CC#N (some centres unmarked) [MRTX 849, MRTX849, reference compound] | – | – | – | TGI % ([4]; Table 2, 10 mg/kg, QD): 79.0%; Tumor volume at the end (Day 22) ([4]; Table 2, 10 mg/kg, QD): 553 mm^3; TGI % ([4]; Table 3, 10 mg/kg, QD): 86.3%; Tumor volume at the end (Day 22) ([4]; Table 3, 10 mg/kg, QD): 355 mm^3; Tumor volume at the start ([4]; Table 3, 10 mg/kg, QD): 188 mm^3 |
